In this test the test system is YAP-TEAD. Put plainly: TEAD inhibition, Hippo Pathway TEAD Reporter MCF-7 luciferase assay. The format is cell-based. Particulars: Homo sapiens, MCF7, 24 h, Hippo Pathway TEAD Reporter MCF-7 cells, luciferase activity after 24 h; read-out: IC50 of the test compounds on YAP-TEAD inhibition (Group). The procedure: TEAD inhibition was assayed using Hippo Pathway TEAD Reporter—MCF-7 cell line (BPS Bioscience, Catalog #: 60618) which contains firefly luciferase gene under the control of TEAD responsive elements. In the cell line, YAP1 remains in the nucleus inducing constitutive expression of luciferase reporter. Amount of expressed luciferase was detected using ONE-Glo Luciferase Assay System (Promega) and measuring plates with Enspire Multimode Plate Reader (PerkinElmer).
Hippo Pathway TEAD Reporter—MCF-7 cells were plated on white/clear Poly-D-Lysine coated 384 plates (Corning #356660) at the density of 8500 cells/well. Next day test compounds (11 concentrations with 4 replicates) and DMSO control (0.1%) were added to the plate. After 24 h cells were lysed and luciferase activity was measured. The half maximal inhibitory concentration (IC50) of the test compounds on YAP-TEAD inhibition was determined.

Usually IC50 stands for the concentration at which inhibition is half-maximal. For the molecule `CC(=O)N1C(=O)CCC1C(=O)Nc1cc(Oc2cccc(C(F)(F)F)c2)ccc1F` (stereo not drawn) [Compound 40, 1-Acetyl-N-(2-fluoro-5-(3-(trifluoromethyl)phenoxy)phenyl)-5-oxopyrrolidine-2-carboxamide], the concentration for half-maximal inhibition (IC50) lay in the range of 301 to 2000 nM.
Next, `COc1ccc(Oc2ccc(C(F)(F)F)cc2)cc1NC(=O)[C@@H]1CCC(=O)N1C(C)=O` [Compound 371, (S)-1-Acetyl-N-(2-methoxy-5-(4-(trifluoromethyl)phenoxy)-phenyl)-5-oxopyrrolidine-2-carboxamide]: 50 to 300 nM; `COc1ccc(Oc2cccc(F)c2)cc1NC(=O)C1(C)CCC(=O)N1` (stereo not drawn) [Compound 15, N-(5-(3-Fluorophenoxy)-2-methoxyphenyl)-2-methyl-5-oxopyrrolidine-2-carboxamide]: 301 to 2000 nM.
Next, `COc1ccc(COc2cccc(F)c2)cc1NC(=O)C1CN(CCF)C1` [Compound 5, 1-(2-Fluoroethyl)-N-(5-((3-fluorophenoxy)methyl)-2-methoxyphenyl)azetidine-3-carboxamide]: 301 to 2000 nM.
Then `CN1C(=O)CCC1C(=O)Nc1cc(Oc2ccc(C(F)(F)F)cn2)cc2c1OCCC2` (stereo not drawn) [Compound 177, 1-Methyl-5-oxo-N-(6-((5-(trifluoromethyl)pyridin-2-yl)oxy)chroman-8-yl)-pyrrolidine-2-carboxamide], with < 50 nM; and `COc1ccc(Oc2cccc(F)c2)cc1NC(=O)C1CCN(C(C)=O)C1` (stereo not drawn) [Compound 413, 1-Acetyl-N-(5-(3-fluorophenoxy)-2-methoxyphenyl)pyrrolidine-3-carboxamide], with 301 to 2000 nM.
`COc1ccc(Oc2cc(F)cc(F)c2)cc1NC(=O)C1CCC(=O)N1C(C)=O` (stereo not drawn) [Compound 77, 1-Acetyl-N-(5-(3,5-difluorophenoxy)-2-methoxyphenyl)-5-oxopyrrolidine-2-carboxamide]: the concentration for half-maximal inhibition (IC50) was 50 to 300 nM.
Then `O=C1CCC(C(=O)Nc2cc(Oc3ccc(C(F)(F)F)cn3)cc3c2OCC3)CN1` (stereo not drawn) [Compound 161, 6-Oxo-N-(5-((5-(trifluoromethyl)pyridin-2-yl)oxy)-2,3-dihydrobenzofuran-7-yl)piperidine-3-carboxamide], with 50 to 300 nM; and `COc1cc(NC(=O)C2CCC(=O)N2C)cc(Oc2ccc(C(F)(F)F)cn2)c1` (stereo not drawn) [Compound 277, N-(3-Methoxy-5-((5-(trifluoromethyl)pyridin-2-yl)oxy)phenyl)-1-methyl-5-oxopyrrolidine-2-carboxamide], with 50 to 300 nM.
Next, `CN1C(=O)CCC1C(=O)Nc1cc(Oc2ccc(C(F)(F)F)cc2)ccc1O` (stereo not drawn) [Compound 372, N-(2-Hydroxy-5-(4-(trifluoromethyl)phenoxy)phenyl)-1-methyl-5-oxopyrrolidine-2-carboxamide]: 301 to 2000 nM; `COc1ccc(Oc2ccc(F)c(C#N)c2)cc1NC(=O)C1CCC(=O)N1C` (stereo not drawn) [Compound 397, N-(5-(3-Cyano-4-fluorophenoxy)-2-methoxyphenyl)-1-methyl-5-oxopyrrolidine-2-carboxamide]: 301 to 2000 nM.
Next, `CN1C(=O)CCC1C(=O)Nc1cc(Oc2cccc(C(F)(F)F)c2)ccc1Br` (stereo not drawn) [Compound 366, N-(2-Bromo-5-(3-(trifluoromethyl)phenoxy)phenyl)-1-methyl-5-oxopyrrolidine-2-carboxamide]: 301 to 2000 nM; `CN1C(=O)CCC1C(=O)Nc1cc(Oc2cccc(C(F)(F)F)c2)ccc1-c1nnco1` (stereo not drawn) [Compound 84, N-(2-(1,3,4-Oxadiazol-2-yl)-5-(3-(trifluoromethyl)phenoxy)phenyl)-1-methyl-5-oxopyrrolidine-2-carboxamide]: 301 to 2000 nM.
As for `COc1ccc(Oc2ccc(C(F)(F)F)cc2)cc1NC(=O)[C@@H]1COC(=O)N1C` [Compound 102, (S)—N-(2-Methoxy-5-(4-(trifluoromethyl)phenoxy)phenyl)-3-methyl-2-oxooxazolidine-4-carboxamide], the 50% inhibitory concentration (IC50) is < 50 nM.
In the case of `COc1ccc(Oc2ccc(C(F)(F)F)cc2)cc1NC(=O)C1CCC(=S)N1C` (stereo not drawn) [Compound 91, N-(2-Methoxy-5-(4-(trifluoromethyl)phenoxy)phenyl)-1-methyl-5-thioxo-pyrrolidine-2-carboxamide], the IC50 was < 50 nM.

Values taken from US20240246908A1 (ORION CORPORATION, priority 2021, published 2024).
